“And” between values parts separate entries of the source, which are not always exact repeats. Equal entries are not always repeated. Records with an inconclusive call do not appear.
System: BDF1 mice, s.c. Lewis lung carcinoma, T/C %
Assay: NCI In Vivo Anticancer Drug Screen. Data for tumor model Lewis Lung Carcinoma (subcutaneous) in B6D2F1 (BDF1) mice
Experimental: The antitumor activity of compounds was measured in mice bearing transplantable tumors. Survival or tumor size were measured and the results are expressed as the measurement made in the treated group (T) divided by the measurement made in the vehicle treated control group (C). The tumor model used in this assay is Lewis Lung Carcinoma (subcutaneous) in B6D2F1 (BDF1) mice

[1] = endpoint: mean tumor weight, dose: 0.25 mg/kg/injection, schedule: Q01DX011 (ip), vehicle: other, higher = larger tumour
[2] = endpoint: mean tumor weight, dose: 0.5 mg/kg/injection, schedule: Q01DX011 (ip), vehicle: other, higher = larger tumour

O=C(Nc1ccc(C2=NCCCN2)cc1)c1ccc(C(=O)Nc2ccc(C3=NCCCN3)cc2)cc1
T/C [1]: 73 % of control
T/C [2]: 98 % of control
T/C (endpoint: mean tumor weight, dose: 1.0 mg/kg/injection, schedule: Q01DX011 (ip), vehicle: other, higher = larger tumour): 85 % of control
T/C (endpoint: mean tumor weight, dose: 2.0 mg/kg/injection, schedule: Q01DX011 (ip), vehicle: other, higher = larger tumour): 73 % of control
T/C (endpoint: mean tumor weight, dose: 4.0 mg/kg/injection, schedule: Q01DX011 (ip), vehicle: other, higher = larger tumour): 7 % of control

Nc1nc(N)c2nc(CNc3ccc(C(=O)NC(CCC(=O)O)C(=O)O)cc3)cnc2n1 (stereo not given)
T/C (endpoint: mean tumor weight, dose: 0.02 mg/kg/injection, schedule: Q01DX011 (ip), vehicle: other, higher = larger tumour): 94 % of control
T/C (endpoint: mean tumor weight, dose: 0.04 mg/kg/injection, schedule: Q01DX011 (ip), vehicle: other, higher = larger tumour): 103 % of control
T/C (endpoint: mean tumor weight, dose: 0.08 mg/kg/injection, schedule: Q01DX011 (ip), vehicle: other, higher = larger tumour): 97 % of control
T/C (endpoint: mean tumor weight, dose: 2.5 micrograms/kg/injection, schedule: Q01DX011 (ip), vehicle: saline, higher = larger tumour): 76 % of control
T/C (endpoint: mean tumor weight, dose: 5.0 micrograms/kg/injection, schedule: Q01DX011 (ip), vehicle: saline, higher = larger tumour): 98 % of control
T/C (endpoint: mean tumor weight, dose: 20.0 micrograms/kg/injection, schedule: Q01DX011 (ip), vehicle: saline, higher = larger tumour): 100 % of control

CO[C@H]1C[C@H](O[C@H]2CC[C@]3(C=O)[C@H]4CC[C@]5(C)[C@@H](C6=CC(=O)OC6)CC[C@]5(O)[C@@H]4CC[C@]3(O)C2)O[C@H](C)[C@H]1O
T/C (endpoint: mean tumor weight, dose: 2.6 mg/kg/injection, schedule: Q01DX011 (sc), vehicle: steriod suspending solution, higher = larger tumour): 59 % of control
T/C (endpoint: mean tumor weight, dose: 4.0 mg/kg/injection, schedule: Q01DX011 (sc), vehicle: steriod suspending solution, higher = larger tumour): 78 % of control

CC(C)=CCC(OC(=O)C=C(C)C)C1=CC(=O)c2c(O)ccc(O)c2C1=O (stereo not given)
T/C (endpoint: median survival time, dose: 6.25 mg/kg/injection, schedule: Q01DX009 (ip), vehicle: Klucel (hydroxypropylcellulose) (HPC), higher = longer survival): 104 % of control
T/C (endpoint: median survival time, dose: 12.5 mg/kg/injection, schedule: Q01DX009 (ip), vehicle: Klucel (hydroxypropylcellulose) (HPC), higher = longer survival): 88 % of control
T/C (endpoint: median survival time, dose: 25.0 mg/kg/injection, schedule: Q01DX009 (ip), vehicle: Klucel (hydroxypropylcellulose) (HPC), higher = longer survival): 118 % of control

O=c1[nH]c(=O)n(C2CC(O)C(CO)O2)cc1Br (stereo not given)
T/C (endpoint: mean tumor weight, dose: 50.0 mg/kg/injection, schedule: Q01DX011 (ip), vehicle: carboxymethylcellulose (CMC), higher = larger tumour): 67 % of control
T/C (endpoint: mean tumor weight, dose: 100.0 mg/kg/injection, schedule: Q01DX011 (ip), vehicle: carboxymethylcellulose (CMC), higher = larger tumour): 88 % of control
T/C (endpoint: mean tumor weight, dose: 200.0 mg/kg/injection, schedule: Q01DX011 (ip), vehicle: carboxymethylcellulose (CMC), higher = larger tumour): 41 % of control
T/C (endpoint: mean tumor weight, dose: 400.0 mg/kg/injection, schedule: Q01DX011 (ip), vehicle: carboxymethylcellulose (CMC), higher = larger tumour): 53 % of control

COc1ccc2c3c(c4cc(OC)c(OC)cc4c2c1)C[C@H]1CCCCN1C3
T/C [1]: 90 % of control and 100 % of control
T/C [2]: 190 % of control
T/C (endpoint: mean tumor weight, dose: 0.75 mg/kg/injection, schedule: Q01DX011 (ip), vehicle: other, higher = larger tumour): 87 % of control

COc1cc2cc(c1Cl)N(C)C(=O)C[C@H](OC(=O)[C@H](C)N(C)C(C)=O)[C@]1(C)O[C@H]1[C@H](C)[C@@H]1C[C@@](O)(NC(=O)O1)[C@H](OC)C=C/C=C(\C)C2
T/C (endpoint: median survival time, dose: 0.04 mg/kg/injection, schedule: Q04DX003 (ip), vehicle: saline, higher = longer survival): 112 % of control
T/C (endpoint: median survival time, dose: 0.08 mg/kg/injection, schedule: Q04DX003 (ip), vehicle: saline, higher = longer survival): 102 % of control
T/C (endpoint: median survival time, dose: 0.15 mg/kg/injection, schedule: Q04DX003 (ip), vehicle: saline, higher = longer survival): 110 % of control
T/C (endpoint: median survival time, dose: 0.6 mg/kg/injection, schedule: Q04DX003 (ip), vehicle: saline, higher = longer survival): 96 % of control

[Cl][Hg][c]1ccc2ccccc2c1
T/C (endpoint: median survival time, dose: 3.0 mg/kg/injection, schedule: Q01DX009 (ip), vehicle: gum acacia, higher = longer survival): 89 % of control
T/C (endpoint: median survival time, dose: 6.0 mg/kg/injection, schedule: Q01DX009 (ip), vehicle: gum acacia, higher = longer survival): 108 % of control

COc1ccc(-c2cc(=O)c3c(OC)c(OC)c(OC)c(OC)c3o2)c(OC)c1
T/C (endpoint: mean tumor weight, dose: 12.5 mg/kg/injection, schedule: Q01DX011 (sc), vehicle: steriod suspending solution, higher = larger tumour): 72 % of control
T/C (endpoint: mean tumor weight, dose: 25.0 mg/kg/injection, schedule: Q01DX011 (sc), vehicle: steriod suspending solution, higher = larger tumour): 88 % of control
T/C (endpoint: mean tumor weight, dose: 50.0 mg/kg/injection, schedule: Q01DX011 (sc), vehicle: steriod suspending solution, higher = larger tumour): 87 % of control
T/C (endpoint: mean tumor weight, dose: 100.0 mg/kg/injection, schedule: Q01DX011 (sc), vehicle: steriod suspending solution, higher = larger tumour): 86 % of control

CC/C(C)=C1\OC(=O)C(C)C(O)C(Cc2cccnc2)NC(=O)C(NC(=O)c2ncccc2O)C(C)OC1=O (stereo not given)
T/C (endpoint: median survival time, dose: 6.25 mg/kg/injection, schedule: Q01DX009 (ip), vehicle: saline with Tween-80, higher = longer survival): 92 % of control
T/C (endpoint: median survival time, dose: 12.5 mg/kg/injection, schedule: Q01DX009 (ip), vehicle: saline with Tween-80, higher = longer survival): 98 % of control

From PubChem BioAssay AID270 (DTP/NCI, 2004)
